# Laboratory results taken from patent US10640514B2, “Polymorph of DPPIV inhibitor maleate and preparation method therefor” (SHANGHAI INSTITUTE OF MATERIA MEDICA, CHINESE ACADEMY OF …, priority 2016, dated 2020).
# Key:
# [1] = Hygroscopicity analysis (DVS); assay type: physicochemical; settings: range of conventional storage humidity, 25° C.
# Description: Dynamic vapor absorption (DVS) test/water absorption test rapidly measures the increase and loss of the moisture in the sample caused by flow carrier gas with set relative humidity (RH), wherein the sample is placed on a digital microbalance with high sensitivity and high stability at a self-suspension state, and then the adsorption/desorption of water vapor is measured by measuring the increase/decrease of mass of the material, thereby determining the hygroscopicity of the sample.
# In the present invention, the test parameters of the DVS are as follows: Instrument type: SMS DVS Intrinsic; Non-hydrate: 0 to 95%-0% RH; Temperature: 25° C.; Hydrate: 40 to 95%-0% RH; Temperature: 25° C.
# DPP IV [2] = target: DPP IV (Homo sapiens, UniProt P27487); experiment: DPP IV inhibitory activity and selectivity in vitro; assay type: biochemical
# DPP IV (Homo sapiens, UniProt P27487), sequence (P27487 whole entry, species assumed): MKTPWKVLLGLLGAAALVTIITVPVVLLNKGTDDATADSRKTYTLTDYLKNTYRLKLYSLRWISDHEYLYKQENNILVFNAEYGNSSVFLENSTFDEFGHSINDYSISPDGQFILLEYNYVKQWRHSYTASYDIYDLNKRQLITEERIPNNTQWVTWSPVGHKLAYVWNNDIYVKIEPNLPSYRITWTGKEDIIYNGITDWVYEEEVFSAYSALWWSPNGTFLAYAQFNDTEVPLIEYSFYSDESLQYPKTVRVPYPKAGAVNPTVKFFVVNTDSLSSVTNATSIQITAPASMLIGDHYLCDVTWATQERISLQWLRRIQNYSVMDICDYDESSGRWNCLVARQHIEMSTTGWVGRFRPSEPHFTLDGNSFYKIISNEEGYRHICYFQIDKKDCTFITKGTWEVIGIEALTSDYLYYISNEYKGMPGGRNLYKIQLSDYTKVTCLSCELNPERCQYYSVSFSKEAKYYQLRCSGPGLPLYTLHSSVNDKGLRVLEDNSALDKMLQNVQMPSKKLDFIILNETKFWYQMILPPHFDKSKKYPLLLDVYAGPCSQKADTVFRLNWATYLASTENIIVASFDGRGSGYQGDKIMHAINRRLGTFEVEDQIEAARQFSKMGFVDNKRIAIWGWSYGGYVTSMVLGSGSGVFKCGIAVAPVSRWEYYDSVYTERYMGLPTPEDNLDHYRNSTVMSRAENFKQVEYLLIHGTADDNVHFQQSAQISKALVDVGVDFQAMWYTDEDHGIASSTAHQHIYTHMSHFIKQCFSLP
# DPP IV [3] = target: T1, DPP IV (Mus musculus, UniProt P28843); experiment: Inhibition of DPP IV activity in normal mouse plasma; assay type: in vivo
# T1 construct: from tissue; host or cells: normal mouse plasma
# T1 sequence (P28843 37-760 limits assumed): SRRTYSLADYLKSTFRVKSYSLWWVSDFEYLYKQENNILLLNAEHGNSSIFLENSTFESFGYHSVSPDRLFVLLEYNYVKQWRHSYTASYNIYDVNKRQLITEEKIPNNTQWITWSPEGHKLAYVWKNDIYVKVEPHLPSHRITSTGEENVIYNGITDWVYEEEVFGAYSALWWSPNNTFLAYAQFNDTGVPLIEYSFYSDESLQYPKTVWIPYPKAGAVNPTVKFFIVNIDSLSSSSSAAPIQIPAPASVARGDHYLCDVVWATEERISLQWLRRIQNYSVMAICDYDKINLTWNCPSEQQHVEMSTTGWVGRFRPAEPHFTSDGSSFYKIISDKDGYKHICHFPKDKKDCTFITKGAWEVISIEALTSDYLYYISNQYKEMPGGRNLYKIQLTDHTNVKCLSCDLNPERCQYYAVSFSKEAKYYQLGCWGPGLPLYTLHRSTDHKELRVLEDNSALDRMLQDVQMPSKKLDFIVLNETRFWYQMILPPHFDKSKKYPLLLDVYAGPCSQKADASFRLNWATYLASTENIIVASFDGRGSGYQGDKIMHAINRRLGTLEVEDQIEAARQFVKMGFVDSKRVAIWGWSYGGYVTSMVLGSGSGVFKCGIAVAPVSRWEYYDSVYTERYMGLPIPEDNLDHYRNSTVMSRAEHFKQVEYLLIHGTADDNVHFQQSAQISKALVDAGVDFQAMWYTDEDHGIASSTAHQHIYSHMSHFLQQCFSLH
# DPP IV [4] = target: T2, DPP IV (Rattus norvegicus, UniProt P14740); experiment: Inhibition of DPP IV activity in normal rat plasma; assay type: in vivo
# T2 construct: from tissue; host or cells: normal rat plasma
# T2 sequence (P14740 37-767 limits assumed): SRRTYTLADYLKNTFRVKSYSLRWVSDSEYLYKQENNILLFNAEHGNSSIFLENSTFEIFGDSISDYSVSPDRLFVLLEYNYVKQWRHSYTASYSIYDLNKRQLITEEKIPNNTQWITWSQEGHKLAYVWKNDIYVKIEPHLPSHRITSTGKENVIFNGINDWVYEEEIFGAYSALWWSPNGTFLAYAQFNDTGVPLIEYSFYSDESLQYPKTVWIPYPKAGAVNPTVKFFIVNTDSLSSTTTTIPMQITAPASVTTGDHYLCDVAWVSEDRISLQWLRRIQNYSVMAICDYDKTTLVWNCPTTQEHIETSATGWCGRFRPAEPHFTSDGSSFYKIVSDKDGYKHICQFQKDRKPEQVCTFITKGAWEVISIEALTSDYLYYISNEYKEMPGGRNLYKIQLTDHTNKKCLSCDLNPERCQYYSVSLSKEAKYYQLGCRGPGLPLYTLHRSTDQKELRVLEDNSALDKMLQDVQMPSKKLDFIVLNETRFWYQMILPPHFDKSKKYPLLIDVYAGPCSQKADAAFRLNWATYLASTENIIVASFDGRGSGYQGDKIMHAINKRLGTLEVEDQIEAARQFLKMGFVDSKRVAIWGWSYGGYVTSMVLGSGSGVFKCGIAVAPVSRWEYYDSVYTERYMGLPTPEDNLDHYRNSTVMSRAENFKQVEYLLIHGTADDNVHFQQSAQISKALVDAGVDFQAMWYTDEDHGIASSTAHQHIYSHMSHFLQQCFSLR
# normal ICR mice = experiment: Oral glucose tolerance in normal ICR mice; assay type: in vivo
# ob/ob mice = experiment: Fasting blood glucose of ob/ob mice, chronic administration; assay type: in vivo
# db/db mice = experiment: Fasting blood glucose of gene-deficient db/db mice, chronic administration; assay type: in vivo
# Pharmacokinetics in rats = assay type: in vivo
# Pharmacokinetics in dogs = assay type: in vivo
# ICR mice = experiment: Acute toxicity test of ICR mice; assay type: in vivo; settings: 300 mg/kg administration group
# [5] = versus sitagliptin and vildagliptin
compound,measurement,setting,value
"COC(=O)c1cc2nc(N3CCC[C@@H](N)C3)n(Cc3ccccc3C#N)c(=O)c2s1.O=C(O)/C=C\C(=O)O [crystal form A, (R)-methyl-2-(3-aminopiperidin-1-yl)-3-(2-cyanobenzyl)-4-carbonyl-3,4-dihydrothiophene[3,2-d]pyrimidine-6-carboxylic acid maleate]","hygroscopicity, variation range (DVS)",[1],less than 2.0%
"COC(=O)c1cc2nc(N3CCC[C@@H](N)C3)n(Cc3ccccc3C#N)c(=O)c2s1 [compound of formula I, (R)-methyl-2-(3-aminopiperidin-1-yl)-3-(2-cyanobenzyl)-4-carbonyl-3,4-dihydrothiophene[3,2-d]pyrimidine-6-carboxylic acid]",mode of DPP IV inhibition,DPP IV [2],"selective, reversible competitive inhibitor"
same,DPP IV inhibitory activity,DPP IV [2]; in vitro,nanomolar level
same,DPP IV inhibitory activity in vitro compared with marketed drugs,DPP IV [2]; [5],superior to the marketed drugs sitagliptin and vildagliptin
same,DPP IV selectivity in vitro compared with marketed drugs,DPP IV [2]; [5],superior to the marketed drugs sitagliptin and vildagliptin
same,inhibition of DPP IV activity in plasma,DPP IV [3],effective in inhibiting DPP IV activity
same,plasma DPP IV inhibitory activity compared with alogliptin,DPP IV [3],superior to the marketed drug alogliptin
same,inhibition of DPP IV activity in plasma,DPP IV [4],effective in inhibiting DPP IV activity
same,plasma DPP IV inhibitory activity compared with alogliptin,DPP IV [4],superior to the marketed drug alogliptin
same,effect on oral glucose tolerance compared with alogliptin,normal ICR mice,superior to that of alogliptin
same,onset dose for increase of oral glucose tolerance,normal ICR mice,0.1 mg/kg
same,oral glucose tolerance,normal ICR mice; dose-dependent manner,increase oral glucose tolerance
same,fasting blood glucose,ob/ob mice,effectively reduce fasting blood glucose
same,fasting blood glucose reduction compared with alogliptin,ob/ob mice,superior to positive control drug alogliptin
same,fasting blood glucose,db/db mice,reduce its fasting blood glucose
same,fasting blood glucose reduction compared with alogliptin,db/db mice,comparable to positive control drug alogliptin
same,AUC0-t compared with alogliptin,Pharmacokinetics in rats,superior to those of the marketed drug alogliptin
same,half-life compared with alogliptin,Pharmacokinetics in rats,superior to those of the marketed drug alogliptin
same,AUC0-t compared with alogliptin,Pharmacokinetics in dogs,superior to those of the marketed drug alogliptin
same,half-life compared with alogliptin,Pharmacokinetics in dogs,superior to those of the marketed drug alogliptin
same,animal death in acute toxicity test,ICR mice,no animal dies
